Numbered stars: 1 amine (or outer) side, 2 acyl side, 3 side chain; on linkers, the order of the positions; unused ones are H or OH. Bridge positions count the residues as written; N and C are the ends. Square brackets hold non-standard residues; d marks the D form. Peptide text beside a SMILES is read from it. * marks the point of attachment. X2 = O=C([C@@H](Cc1ccccc1)N(CC(CO)(CO)CO)[*:1])[*:2]; 2Nal = N[C@@H](Cc1ccc2ccccc2c1)C(=O)O; X3 = O=C(CN(C(CO)(CO)CO)[*:1])[*:2]; X4 = O=C(CN1CCN(CCO)CC1)*
Tests used:
[1] = test system: stimulated growth hormone release; assay: Growth Hormone (GH) Inhibition Assay in rats (D-Ala2-GRF stimulated GH); assay type: in vivo, male Sprague Dawley rats; conditions: s.c.; for Inhibition of stimulated growth hormone release (percentile control): 25 μg/kg
Protocol: Groups of five male Sprague Dawley rats (each having a weight between 250-300 g) were injected s.c. with a somatostatin derivative or saline. Thirty minutes prior to the selected post-drug time periods shown in table II (2 hours, 4 hours, 6 hours, 8 hours), rats were anesthetized with Nembutal i.p. (50 mg/kg). Fifteen minutes following anesthesia, an aliquot of blood was withdrawn by cardiac puncture over heparin to measure basal GH. Additionally, a s.c. injection of D-Ala^2 -GRF (10 μg/kg) was given. Fifteen minutes later, blood was withdrawn to quantitate the stimulated GH, which was measured in plasma using a radioimmunoassay supplied by NIADDKD. The percentage of GH inhibition was calculated from differences obtained between basal and stimulated GH values.
The efficacy of D-Phe-c[Cys-Tyr-D-Trp-Lys-Thr-Cys]-Nal-NH2 (SEQ ID NO. 113) (BIM-23060) in inhibiting growth hormone in rats is compared with other somatostatin derivatives (BIM-23167, BIM-23179, and BIM-23181) of the invention.
Additional experiments were conducted on D-Phe-c[Cys-Tyr-D-Trp-Lys-Abu-Cys]-Thr-NH2, (SEQ ID NO. 112) a somatostatin analog, and BIM-23190, BIM-23195 and BIM-23197, to determine the ED50 (i.e., the concentration of each compound required to inhibit fifty percent of growth hormone release after a specified time) of the respective compound. Experiments were conducted at a dose range of between 25 μg/kg and 0.25 μg/kg.

[2] = test system: AR42J rat pancreas tumor cells; assay: Antiproliferative assay on AR42J cells; assay type: cell-based; conditions: Concentration 100 nM, AR42J Rat Pancreas Tumor Cells after 8 days
Protocol: The purified somatostatin analogs described above were also tested for activity against rapidly proliferating cells.
^1 Concentration 100 nM, AR42J Rat Pancreas Tumor Cells after 8 days.

somatostatin receptor = target: T1, somatostatin receptor (Rattus norvegicus, UniProt P30680); assay: Somatostatin binding assay: in vitro inhibition of binding of [125I-Tyr11]SRIF-14 to rat AR42J pancreas membranes; conditions: inhibition of [125I-Tyr11]SRIF-14 binding, read-out: IC50, in vitro binding affinity
T1 construct: SRIF-14 to rat AR42J pancreas membranes; endogenous in cells; host or cells: rat AR42J pancreatic cells (membrane preparation)
T1 sequence (P30680 whole entry): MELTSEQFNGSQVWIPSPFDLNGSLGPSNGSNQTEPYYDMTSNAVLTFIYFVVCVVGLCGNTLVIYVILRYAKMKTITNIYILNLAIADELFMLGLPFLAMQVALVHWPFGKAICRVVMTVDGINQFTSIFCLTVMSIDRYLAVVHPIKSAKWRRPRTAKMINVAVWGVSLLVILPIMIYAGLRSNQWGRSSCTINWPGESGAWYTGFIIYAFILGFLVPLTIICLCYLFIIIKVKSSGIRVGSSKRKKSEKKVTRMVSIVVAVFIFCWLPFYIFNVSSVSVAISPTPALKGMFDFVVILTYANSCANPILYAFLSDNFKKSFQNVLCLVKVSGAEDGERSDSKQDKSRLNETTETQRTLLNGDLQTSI

Molecule: CC[C@@H]1NC(=O)[C@H](CCCCN)NC(=O)[C@@H](Cc2c[nH]c3ccccc23)NC(=O)[C@H](Cc2ccc(O)cc2)NC(=O)[C@@H](NC(=O)[C@H](N)Cc2ccccc2)CSSC[C@@H](C(=O)N[C@H](C(N)=O)[C@@H](C)O)NC1=O [BIM-23023, D-Phe-c[Cys-Tyr-D-Trp-Lys-Abu-Cys]-Thr-NH2, reference compound]
- ED50, inhibition of stimulated growth hormone release ([1]; 2 Hours): 0.48 µg/kg
- ED50, inhibition of stimulated growth hormone release ([1]; 4 Hours): 1.11 µg/kg
- ED50, inhibition of stimulated growth hormone release ([1]; 6 Hours): 2.26 µg/kg
- ED50, inhibition of stimulated growth hormone release ([1]; 8 Hours): 4.32 µg/kg

Molecule: CC(=O)OCC(COC(C)=O)(COC(C)=O)NC(=O)CCC(=O)N[C@H](Cc1ccc2ccccc2c1)C(=O)N[C@H]1CSSC[C@@H](C(=O)N[C@H](C(N)=O)[C@@H](C)O)NC(=O)[C@H](C(C)C)NC(=O)[C@H](CCCCN)NC(=O)[C@@H](Cc2c[nH]c3ccccc23)NC(=O)[C@H](Cc2ccc(O)cc2)NC1=O [BIM-23107, (AcO-CH2)3 -C-NH-CO-(CH2)2 -CO-D-Nal-c[Cys-Tyr-D-Trp-Lys-Val-Cys]-Thr-NH2]
- Cell growth (percent of control) [2]: 67.5% of control

Molecule: CC(C)[C@@H]1NC(=O)[C@H](CCCCN)NC(=O)[C@@H](Cc2c[nH]c3ccccc23)NC(=O)[C@H](Cc2ccc(O)cc2)NC(=O)[C@@H](NC(=O)[C@@H](Cc2ccc3ccccc3c2)NC(=O)COC2=C(O)C(=O)O[C@@H]2[C@@H](O)CO)CSSC[C@@H](C(=O)N[C@H](C(N)=O)[C@@H](C)O)NC1=O [BIM-23135]
- Cell growth (percent of control) [2]: 62.9% of control

Molecule: CC(C)[C@@H]1NC(=O)[C@H](CCCCN)NC(=O)[C@@H](Cc2c[nH]c3ccccc23)NC(=O)[C@H](Cc2ccc(O)cc2)NC(=O)[C@@H](NC(=O)[C@@H](Cc2ccc3ccccc3c2)NC(=O)CCC(=O)NC(CO)(CO)CO)CSSC[C@@H](C(=O)N[C@H](C(N)=O)[C@@H](C)O)NC1=O [BIM-23158, (HO-CH2)3 -C-NH-CO-(CH2)2 -CO-D-Nal-c[Cys-Tyr-D-Trp-Lys-Val-Cys]-Thr-NH2]
- IC50 (somatostatin receptor): 0.33 nM

Molecule: CC[C@@H]1NC(=O)[C@H](CCCCN)NC(=O)[C@@H](Cc2c[nH]c3ccccc23)NC(=O)[C@H](Cc2ccc(O)cc2)NC(=O)[C@@H](NC(=O)[C@@H](Cc2ccccc2)NC(=O)CCC(=O)NC(CO)(CO)CO)CSSC[C@@H](C(=O)N[C@H](C(N)=O)[C@@H](C)O)NC1=O [BIM-23173, (HO-CH2)3 -C-NH-CO-(CH2)2 -CO-D-Phe-c[Cys-Tyr-D-Trp-Lys-Abu-Cys]-Thr-NH2]
- IC50 (somatostatin receptor): 0.11 nM

Molecule: C[C@@H](O)[C@@H]1NC(=O)[C@H](CCCCN)NC(=O)[C@@H](Cc2c[nH]c3ccccc23)NC(=O)[C@H](Cc2ccc(O)cc2)NC(=O)[C@@H](NC(=O)[C@@H](Cc2ccccc2)NC(=O)CNC(CO)(CO)CO)CSSC[C@@H](C(=O)N[C@@H](Cc2ccc3ccccc3c2)C(N)=O)NC1=O [BIM-23179, (HO-CH2)3 -C-NH-CH2 -CO-D-Phe-c[Cys-Tyr-D-Trp-Lys-Thr-Cys]-Nal-NH2] (H-[X3][dF]CY[dW]KTC[2Nal]-NH2; disulfide 3-8)
- IC50 (somatostatin receptor): 0.12 nM
- Inhibition of stimulated growth hormone release (percentile control) ([1]; 2 Hours): 92.79 percentile control
- Inhibition of stimulated growth hormone release (percentile control) ([1]; 4 Hours): 63.85 percentile control
- Inhibition of stimulated growth hormone release (percentile control) ([1]; 6 Hours): 67.78 percentile control
- Inhibition of stimulated growth hormone release (percentile control) ([1]; 8 Hours): 68.26 percentile control

Molecule: CC[C@@H]1NC(=O)[C@H](CCCCN)NC(=O)[C@@H](Cc2c[nH]c3ccccc23)NC(=O)[C@H](Cc2ccc(O)cc2)NC(=O)[C@@H](NC(=O)[C@@H](Cc2ccccc2)NC(=O)CNC(CO)(CO)CO)CSSC[C@@H](C(=O)N[C@H](C(N)=O)[C@@H](C)O)NC1=O [BIM-23182, (HO-CH2)3 -C-NH-CH2 -CO-D-Phe-c[Cys-Tyr-D-Trp-Lys-Abu-Cys]-Thr-NH2]
- IC50 (somatostatin receptor): 0.12 nM

Molecule: CC[C@@H]1NC(=O)[C@H](CCCCN)NC(=O)[C@@H](Cc2c[nH]c3ccccc23)NC(=O)[C@H](Cc2ccc(O)cc2)NC(=O)[C@@H](NC(=O)[C@@H](Cc2ccccc2)NC(=O)COC2=C(OCC(O)CO)C(=O)O[C@@H]2[C@@H](O)CO)CSSC[C@@H](C(=O)N[C@H](C(N)=O)[C@@H](C)O)NC1=O (some centres unmarked) [BIM-23183]
- Cell growth (percent of control) [2]: 69.1% of control

Molecule: CC[C@@H]1NC(=O)[C@H](CCCCN)NC(=O)[C@@H](Cc2c[nH]c3ccccc23)NC(=O)[C@H](Cc2ccc(O)cc2)NC(=O)[C@@H](NC(=O)[C@@H](Cc2ccccc2)NC(=O)CN2CCN(CCO)CC2)CSSC[C@@H](C(=O)N[C@H](C(N)=O)[C@@H](C)O)NC1=O [BIM-23190]
- IC50 (somatostatin receptor): 0.2 nM

Molecule: C[C@@H](O)[C@@H]1NC(=O)[C@H](CCCCN)NC(=O)[C@@H](Cc2c[nH]c3ccccc23)NC(=O)[C@H](Cc2ccc(O)cc2)NC(=O)[C@@H](NC(=O)[C@@H](Cc2ccccc2)NC(=O)CN2CCN(CCO)CC2)CSSC[C@@H](C(=O)N[C@@H](Cc2ccc3ccccc3c2)C(N)=O)NC1=O [BIM-23191] (X4-[dF]CY[dW]KTC[2Nal]-NH2; disulfide 2-7)
- IC50 (somatostatin receptor): 0.08 nM

Molecule: CC[C@@H]1NC(=O)[C@H](CCCCN)NC(=O)[C@@H](Cc2c[nH]c3ccccc23)NC(=O)[C@H](Cc2ccc(O)cc2)NC(=O)[C@@H](NC(=O)[C@@H](Cc2ccccc2)NCC(CO)(CO)CO)CSSC[C@@H](C(=O)N[C@H](C(N)=O)[C@@H](C)O)NC1=O [BIM-23195, (Ho-CH2)3 C-CH2 -D-Phe-C[Cys-Tyr-D-Trp-Lys-Abu-Cys]-Thr-NH2]
- IC50 (somatostatin receptor): 0.08 nM

Molecule: CC[C@@H]1NC(=O)[C@H](CCCCN)NC(=O)[C@@H](Cc2c[nH]c3ccccc23)NC(=O)[C@H](Cc2ccc(O)cc2)NC(=O)[C@@H](NC(=O)[C@@H](Cc2ccccc2)NS(=O)(=O)CCNC(CO)(CO)CO)CSSC[C@@H](C(=O)N[C@H](C(N)=O)[C@@H](C)O)NC1=O [BIM-23196]
- IC50 (somatostatin receptor): 0.09 nM

Molecule: CC[C@@H]1NC(=O)[C@H](CCCCN)NC(=O)[C@@H](Cc2c[nH]c3ccccc23)NC(=O)[C@H](Cc2ccc(O)cc2)NC(=O)[C@@H](NC(=O)[C@@H](Cc2ccccc2)NS(=O)(=O)CCN2CCN(CCO)CC2)CSSC[C@@H](C(=O)N[C@H](C(N)=O)[C@@H](C)O)NC1=O [BIM-23197]
- IC50 (somatostatin receptor): 0.29 nM

Molecule: C[C@@H](O)[C@@H]1NC(=O)[C@H](CCCCN)NC(=O)[C@@H](Cc2c[nH]c3ccccc23)NC(=O)[C@H](Cc2ccc(O)cc2)NC(=O)[C@@H](NC(=O)[C@@H](Cc2ccccc2)NCC(CO)(CO)CO)CSSC[C@@H](C(=O)N[C@@H](Cc2ccc3ccccc3c2)C(N)=O)NC1=O [BIM-23201, (HO-CH2)3 -C-CH2 -D-Phe-c[Cys-Tyr-D-Trp-Lys-Thr-Cys]-Nal-NH2] (H-[X2]CY[dW]KTC[2Nal]-NH2; disulfide 2-7)
- IC50 (somatostatin receptor): 0.14 nM

Molecule: CC[C@@H]1NC(=O)[C@H](CCCCN)NC(=O)[C@@H](Cc2c[nH]c3ccccc23)NC(=O)[C@H](Cc2ccc(O)cc2)NC(=O)[C@@H](NC(=O)[C@@H](Cc2ccccc2)NC(=O)CN2CCN(CCOCCO)CC2)CSSC[C@@H](C(=O)N[C@H](C(N)=O)[C@@H](C)O)NC1=O [BIM-23202]
- IC50 (somatostatin receptor): 0.18 nM

Molecule: D-Phe-c[Cys-Tyr-D-Trp-Lys-Thr-Cys]-Nal-NH2 [BIM-23060, reference compound]
- Inhibition of stimulated growth hormone release (percentile control) ([1]; 2 Hours): 86.39 percentile control
- Inhibition of stimulated growth hormone release (percentile control) ([1]; 4 Hours): 64.96 percentile control
- Inhibition of stimulated growth hormone release (percentile control) ([1]; 6 Hours): 47.62 percentile control
- Inhibition of stimulated growth hormone release (percentile control) ([1]; 8 Hours): 38.15 percentile control

Source: US5552520A, “Therapeutic peptide derivatives” (Biomeasure, Inc., priority 1994, dated 1996)
